Assay results: patent US10682408B2, “Localized immunosuppression of allografts for peripheral nerve repair” (UNIVERSITY OF WYOMING, priority 2016, dated 2020)

Test system: DRGs, motor neurons, and Schwann cells
Assay: Alamar blue viability assay of PN cells cultured 72 hours with immunosuppressive drugs
Details: 72 hours culture, max 1% DMSO
Experimental: It is contemplated that delivery of immunosuppressive agents function within a favorable therapeutic window. PNs are comprised of three major nervous system cell types, motor neurons, sensory neurons, and Schwann cells. […] FIG. 1B illustrates data regarding the toxicity of tacrolimus to DRGs, motor neurons, and Schwann cells. FIG. 1C illustrates data regarding the toxicity of prednisolone to DRGs, motor neurons, and Schwann cells.
Cells (DRGs, motor neurons, and Schwann cells) were cultured for 72 hours in various concentration of the immunosuppressive drugs and viability was evaluated using the Alamar blue viability assay. ISV's were diluted into media using a maximum of 1% dimethylsulfoxide (DMSO).
Biological material from Sprague Dawley (GFP− and GFP+) and Lewis rats, without any pathological conditions, were utilized to determine the PN allograft methods and materials described herein. Lewis rats were obtained from Charles River Laboratories (Wilmington, Mass.) and Sprague Dawley rats were obtained from Rat Resource and Research Center (Columbia, Mo.). Alzet osmotic pumps (model 1004), commercially available from DURECT Corporation, Cupertino, Calif., were utilized for delivery of immunosuppressive agents to PN allografts.

Question: For C[C@]12C=CC(=O)C=C1CC[C@@H]1[C@@H]2[C@@H](O)C[C@@]2(C)[C@H]1CC[C@]2(O)C(=O)CO [prednisolone], which “dose tolerated by the cells (up to)” value is on record?
Answer: up to 200 μM
